Tested on: DIG10.3
Experiment: Binding of tethered ligand to binding protein DIG10.3

CC(=O)[C@H]1CC[C@H]2[C@@H]3CCC4=CC(=O)CC[C@]4(C)[C@H]3CC[C@]12C [Progesterone, progesterone]
binding to DIG10.3: binds weakly

Source: patent publication US9952208B2, “Means and methods for bioluminescence resonance energy transfer (BRET) analysis in a biological sample” (priority 2013, dated 2018)
